Measurements reported in PubChem BioAssay (NCI).
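Interpolation was linear, between the two tested concentrations surrounding the appropriate level; five concentrations were tested over 48 hours in 96-well plates. GI50 marks 50% less growth. TGI denotes the concentration required for complete inhibition of growth.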

Tests used:
Experiment in all cases: growth of human tumour cells (NCI), 48 h
[1] = tested on: 786-0 renal
[2] = tested on: A498 renal
[3] = tested on: A549 NSCLC
[4] = tested on: ACHN renal
[5] = tested on: BT-549 breast
[6] = tested on: CAKI-1 renal
[7] = tested on: CCRF-CEM leukemia
[8] = tested on: COLO 205 colon
[9] = tested on: DU-145 prostate
[10] = tested on: EKVX NSCLC
[11] = tested on: HCC-2998 colon
[12] = tested on: HCT-116 colon
[13] = tested on: HCT-15 colon
[14] = tested on: HL-60(TB) leukemia
[15] = tested on: HOP-62 NSCLC
[16] = tested on: HOP-92 NSCLC
[17] = tested on: HS 578T breast
[18] = tested on: HT29 colon
[19] = tested on: IGROV1 ovarian
[20] = tested on: K-562 leukemia
[21] = tested on: KM12 colon
[22] = tested on: LOX IMVI melanoma
[23] = tested on: M14 melanoma
[24] = tested on: MALME-3M melanoma
[25] = tested on: MCF7 breast
[26] = tested on: MDA-MB-231 breast
[27] = tested on: MDA-MB-435
[28] = tested on: MDA-MB-468 breast
[29] = tested on: MOLT-4 leukemia

Q: How did the GI50 [1] turn out when `COC1=C[C@]23CCC(=O)N2CCc2cc4c(cc2[C@@H]3[C@@H]1OC(=O)[C@H](C)O)OCO4` was run?
A: 11 µM

Q: What about the TGI [1] of the same compound?
A: 42.9 µM

Q: And the GI50 [2]?
A: 6.02 µM

Q: What about the TGI [2] of the same compound?
A: 32.1 µM

Q: And the GI50 [3]?
A: 7.13 µM

Q: And the TGI [3]?
A: 50.6 µM

Q: And the GI50 [4]?
A: 3.65 µM

Q: And the TGI [4]?
A: 30.4 µM

Q: What about the GI50 [5] of the same compound?
A: 10.5 µM

Q: And the TGI [5]?
A: 32.8 µM

Q: What about the GI50 [6] of the same compound?
A: 14.1 µM

Q: What about the TGI [6] of the same compound?
A: > 52 µM

Q: And the GI50 [7]?
A: 4.77 µM

Q: What about the TGI [7] of the same compound?
A: 41.6 µM

Q: What about the GI50 [8] of the same compound?
A: 7.67 µM

Q: What about the TGI [8] of the same compound?
A: 31.5 µM

Q: What about the GI50 [9] of the same compound?
A: 12.1 µM

Q: What about the TGI [9] of the same compound?
A: > 52 µM

Q: And the GI50 [10]?
A: 10.5 µM

Q: And the TGI [10]?
A: > 52 µM

Q: What about the GI50 [11] of the same compound?
A: 2270 nM

Q: What about the TGI [11] of the same compound?
A: 10.5 µM

Q: And the GI50 [12]?
A: 2330 nM

Q: What about the TGI [12] of the same compound?
A: > 52 µM

Q: What about the GI50 [13] of the same compound?
A: 5.08 µM

Q: What about the TGI [13] of the same compound?
A: 25 µM

Q: What about the GI50 [14] of the same compound?
A: 2010 nM

Q: And the TGI [14]?
A: > 52 µM

Q: And the GI50 [15]?
A: 10.2 µM

Q: And the TGI [15]?
A: > 52 µM

Q: What about the GI50 [16] of the same compound?
A: 6.12 µM

Q: And the TGI [16]?
A: 33.4 µM

Q: What about the GI50 [17] of the same compound?
A: 8.04 µM

Q: And the TGI [17]?
A: 35.6 µM

Q: What about the GI50 [18] of the same compound?
A: 4.41 µM

Q: And the TGI [18]?
A: > 52 µM

Q: What about the GI50 [19] of the same compound?
A: 6.52 µM

Q: What about the TGI [19] of the same compound?
A: > 52 µM

Q: What about the GI50 [20] of the same compound?
A: 2610 nM

Q: What about the TGI [20] of the same compound?
A: > 52 µM

Q: What about the GI50 [21] of the same compound?
A: 10.4 µM

Q: And the TGI [21]?
A: > 52 µM

Q: And the GI50 [22]?
A: 2310 nM

Q: What about the TGI [22] of the same compound?
A: 13.3 µM

Q: What about the GI50 [23] of the same compound?
A: 6.74 µM

Q: And the TGI [23]?
A: 15.8 µM

Q: What about the GI50 [24] of the same compound?
A: 2620 nM

Q: And the TGI [24]?
A: 16.2 µM

Q: And the GI50 [25]?
A: 1540 nM

Q: What about the TGI [25] of the same compound?
A: 10.2 µM

Q: What about the GI50 [26] of the same compound?
A: 13.2 µM

Q: What about the TGI [26] of the same compound?
A: > 52 µM

Q: And the GI50 [27]?
A: 11.2 µM

Q: What about the TGI [27] of the same compound?
A: 45.5 µM

Q: And the GI50 [28]?
A: 2300 nM

Q: And the TGI [28]?
A: 15.1 µM

Q: And the GI50 [29]?
A: 1870 nM

Q: And the TGI [29]?
A: > 52 µM
